Data from patent publication US11590139B2, “Substituted aminopurine compounds, compositions thereof, and methods of treatment therewith” (Signal Pharmaceuticals, LLC, priority 2014, dated 2023).
Read-outs that look alike come from different tables or passages of the source.

Test system: Lox-IMVI melanoma cell line
Test: Lox-IMVI anti-proliferative assay (growth inhibition, Cell Titer-Glo)
Assay type: cell-based, human
Settings: Lox-IMVI melanoma cell line, anti-proliferative assay, read-out: Activity (IC50 activity level)
Procedure, shortened: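 Cells grown in RPMI + 10% FBS were exposed to compound at 0.5 nM to 10 μM (10-point, 3-fold dilution, duplicate, 0.2% DMSO final) for 72 h at 37 °C, 5% CO2. Viability was read by ATP luminescence at t0 and 72 h. IC50 came from a four-parameter logistic fit normalized to DMSO control.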

Row | SMILES | IC50 | IC50 (Homo sapiens)
1 | C[C@]1(C(N)=O)CC[C@@H](n2c(Nc3c(Cl)cc(F)cc3Cl)nc3cnc(NC4CCC4)nc32)CC1 [Example 606, (1s,4s)-4-(2-(cyclobutylamino)-8-(2,6-dichloro-4-fluorophenylamino)-9H-purin-9-yl)-1-methylcyclohexanecarboxamide] | < 250 nM | 
2 | C[C@]1(C(N)=O)CC[C@@H](n2c(Nc3c(F)cc(F)cc3F)nc3cnc(NC4CCC4)nc32)CC1 [Example 607, (1s,4s)-4-(2-(cyclobutylamino)-8-(2,4,6-trifluorophenylamino)-9H-purin-9-yl)-1-methylcyclohexanecarboxamide] |  | < 250 nM
3 | C[C@]1(C(N)=O)CC[C@@H](n2c(Nc3c(F)cc(Cl)cc3F)nc3cnc(NC4CCC4)nc32)CC1 [Example 608, (1s,4s)-4-(8-(4-chloro-2,6-difluorophenylamino)-2-(cyclobutylamino)-9H-purin-9-yl)-1-methylcyclohexanecarboxamide] |  | < 250 nM
4 | C[C@]1(C(N)=O)CC[C@@H](n2c(Nc3c(F)cc(F)cc3F)nc3cnc(N[C@H]4CCC[C@H](O)C4)nc32)CC1 [Example 609, (1R,4s)-4-(2-((1S,3S)-3-hydroxycyclohexylamino)-8-(2,4,6-trifluorophenylamino)-9H-purin-9-yl)-1-methylcyclohexanecarboxamide] |  | 250 to 500 nM
5 | C[C@]1(C(N)=O)CC[C@@H](n2c(Nc3c(F)cc(F)cc3Cl)nc3cnc(N[C@H]4CCC[C@H](O)C4)nc32)CC1 [Example 610, (1R,4s)-4-(8-(2-chloro-4,6-difluorophenylamino)-2-((1S,3S)-3-hydroxycyclohexylamino)-9H-purin-9-yl)-1-methylcyclohexanecarboxamide] |  | 250 to 500 nM
6 | C[C@]1(C(N)=O)CC[C@@H](n2c(Nc3c(Cl)cc(Cl)cc3Cl)nc3cnc(N[C@H]4CCC[C@H](O)C4)nc32)CC1 [Example 611, (1R,4s)-4-(2-((1S,3S)-3-hydroxycyclohexylamino)-8-(2,4,6-trichlorophenylamino)-9H-purin-9-yl)-1-methylcyclohexanecarboxamide] |  | < 250 nM
7 | C[C@]1(C(N)=O)CC[C@@H](n2c(Nc3c(F)cc(Cl)cc3Cl)nc3cnc(N[C@H]4CCC[C@H](O)C4)nc32)CC1 [Example 612, (1R,4s)-4-(8-(2,4-dichloro-6-fluorophenylamino)-2-((1S,3S)-3-hydroxycyclohexylamino)-9H-purin-9-yl)-1-methylcyclohexanecarboxamide] |  | < 250 nM
8 | C[C@]1(C(N)=O)CC[C@@H](n2c(Nc3c(Cl)cc(F)cc3Cl)nc3cnc(N[C@H]4CCC[C@H](O)C4)nc32)CC1 [Example 613, (1R,4s)-4-(8-(2,6-dichloro-4-fluorophenylamino)-2-((1S,3S)-3-hydroxycyclohexylamino)-9H-purin-9-yl)-1-methylcyclohexanecarboxamide] |  | < 250 nM
9 | C[C@]1(C(N)=O)CC[C@@H](n2c(Nc3c(F)cc(Cl)cc3F)nc3cnc(N[C@H]4CCC[C@H](O)C4)nc32)CC1 [Example 614, (1R,4s)-4-(8-(4-chloro-2,6-difluorophenylamino)-2-((1S,3S)-3-hydroxycyclohexylamino)-9H-purin-9-yl)-1-methylcyclohexanecarboxamide] |  | < 250 nM
10 | C[C@]1(C(N)=O)CC[C@@H](n2c(Nc3c(F)cc(C#N)cc3Cl)nc3cnc(N[C@H]4CCC[C@H](O)C4)nc32)CC1 [Example 615, (1R,4s)-4-(8-(2-chloro-4-cyano-6-fluorophenylamino)-2-((1S,3S)-3-hydroxycyclohexylamino)-9H-purin-9-yl)-1-methylcyclohexanecarboxamide] |  | < 250 nM

Results, then the compound that gave them:

Row | IC50 | IC50 (Homo sapiens) | SMILES
11 |  | < 250 nM | C[C@]1(C(N)=O)CC[C@@H](n2c(Nc3c(Cl)cc(C#N)cc3Cl)nc3cnc(N[C@H]4CCC[C@H](O)C4)nc32)CC1 [Example 616, (1R,4s)-4-(8-(2,6-dichloro-4-cyanophenylamino)-2-((1S,3S)-3-hydroxycyclohexylamino)-9H-purin-9-yl)-1-methylcyclohexanecarboxamide]
12 |  | > 1000 nM | C[C@]1(C(N)=O)CC[C@@H](n2c(Nc3c(F)cc(F)cc3F)nc3cnc(N[C@@H]4CCC[C@@H](O)C4)nc32)CC1 [Example 617, (1S,4s)-4-(2-((1R,3R)-3-hydroxycyclohexylamino)-8-(2,4,6-trifluorophenylamino)-9H-purin-9-yl)-1-methylcyclohexanecarboxamide]
13 |  | 500 to 1000 nM | C[C@]1(C(N)=O)CC[C@@H](n2c(Nc3c(F)cc(F)cc3Cl)nc3cnc(N[C@@H]4CCC[C@@H](O)C4)nc32)CC1 [Example 618, (1S,4s)-4-(8-(2-chloro-4,6-difluorophenylamino)-2-((1R,3R)-3-hydroxycyclohexylamino)-9H-purin-9-yl)-1-methylcyclohexanecarboxamide]
14 |  | 500 to 1000 nM | C[C@]1(C(N)=O)CC[C@@H](n2c(Nc3c(Cl)cc(Cl)cc3Cl)nc3cnc(N[C@@H]4CCC[C@@H](O)C4)nc32)CC1 [Example 619, (1S,4s)-4-(2-((1R,3R)-3-hydroxycyclohexylamino)-8-(2,4,6-trichlorophenylamino)-9H-purin-9-yl)-1-methylcyclohexanecarboxamide]
15 |  | 500 to 1000 nM | C[C@]1(C(N)=O)CC[C@@H](n2c(Nc3c(F)cc(Cl)cc3Cl)nc3cnc(N[C@@H]4CCC[C@@H](O)C4)nc32)CC1 [Example 620, (1S,4s)-4-(8-(2,4-dichloro-6-fluorophenylamino)-2-((1R,3R)-3-hydroxycyclohexylamino)-9H-purin-9-yl)-1-methylcyclohexanecarboxamide]
16 |  | > 1000 nM | C[C@]1(C(N)=O)CC[C@@H](n2c(Nc3c(Cl)cc(F)cc3Cl)nc3cnc(N[C@@H]4CCC[C@@H](O)C4)nc32)CC1 [Example 621, (1S,4s)-4-(8-(2,6-dichloro-4-fluorophenylamino)-2-((1R,3R)-3-hydroxycyclohexylamino)-9H-purin-9-yl)-1-methylcyclohexanecarboxamide]
17 |  | 500 to 1000 nM | C[C@]1(C(N)=O)CC[C@@H](n2c(Nc3c(F)cc(Cl)cc3F)nc3cnc(N[C@@H]4CCC[C@@H](O)C4)nc32)CC1 [Example 622, (1S,4s)-4-(8-(4-chloro-2,6-difluorophenylamino)-2-((1R,3R)-3-hydroxycyclohexylamino)-9H-purin-9-yl)-1-methylcyclohexanecarboxamide]
18 |  | 250 to 500 nM | C[C@]1(C(N)=O)CC[C@@H](n2c(Nc3c(F)cc(C#N)cc3Cl)nc3cnc(N[C@@H]4CCC[C@@H](O)C4)nc32)CC1 [Example 623, (1S,4s)-4-(8-(2-chloro-4-cyano-6-fluorophenylamino)-2-((1R,3R)-3-hydroxycyclohexylamino)-9H-purin-9-yl)-1-methylcyclohexanecarboxamide]
19 |  | 250 to 500 nM | C[C@]1(C(N)=O)CC[C@@H](n2c(Nc3c(Cl)cc(C#N)cc3Cl)nc3cnc(N[C@@H]4CCC[C@@H](O)C4)nc32)CC1 [Example 624, (1S,4s)-4-(8-(2,6-dichloro-4-cyanophenylamino)-2-((1R,3R)-3-hydroxycyclohexylamino)-9H-purin-9-yl)-1-methylcyclohexanecarboxamide]
20 |  | > 1000 nM | C[C@]1(C(N)=O)CC[C@@H](n2c(Nc3c(F)cc(F)cc3F)nc3cnc(N[C@H]4CCC[C@@H](O)C4)nc32)CC1 [Example 625, (1R,4s)-4-(2-((1S,3R)-3-hydroxycyclohexylamino)-8-(2,4,6-trifluorophenylamino)-9H-purin-9-yl)-1-methylcyclohexanecarboxamide]
